In patent US6943172B2, “Rho-kinase inhibitors” (Bayer Pharmaceuticals Corporation, priority 2002, dated 2005):

melting point: 181 to 186 °C
Compound: CCc1cc(Nc2ccc(Sc3ccncc3)cc2)nc(N)n1 [Example 42, N-(2-amino-6-ethyl-4-pyrimidinyl)-N-[4-(4-pyridinylsulfanyl)phenyl]amine]
